This note sets out measurements from patent US11850266B2, “Cardiomyocytes and compositions and methods for producing the same” (President and Fellows of Harvard College, priority 2019, dated 2023).

Entries after “also recorded” stand apart in the source; their conditions may differ.

What all share (type): cell-based, human
The subject of test [1] is mTORC1 (S6K) and mTORC2 (Akt). As to the kind of experiment: Western analysis of phosphorylation downstream of mTORC1 and mTORC2 in iPSC-derived cardiomyocytes.
Protocol: Cells were lysed with lysis buffer (1% Triton X, 0.35% Na-deoxycholate, 1 mM EDTA, 1% protease inhibitor cocktail (Sigma), 1% phosphatase inhibitor cocktail 2 (Sigma), 1% phosphatase inhibitor cocktail 3 (Sigma), 1 mM phenylmethylsulfonyl fluoride (PMSF)) and total protein was measured with the Pierce BCA Protein Assay Kit. Samples with equal total protein quantities (prepared in Laemmli Sample Buffer (Bio-Rad)) were loaded into a Mini-Protean TGX Precast Gel (Bio-Rad) and electrophoresed for 1 hour at 100 V before transfer to a PVDF membrane using the Trans-Blot Turbo Transfer System (Bio-Rad). The Precision Plus Protein Dual Color Standards molecular weight ladder was used to estimate molecular weight of detected bands (Bio-Rad). Membranes were blocked with 5% milk or bovine serum albumin then incubated with the primary antibody (Table 2) overnight at 4 degrees C. followed by incubation with the horseradish peroxidase-conjugated secondary antibody (Table 2) for 1 hour at room temperature. The Amersham ECL Western Blotting Detection kit was used to detect the protein signal by chemiluminescence, and band densities were quantified using ImageJ software (NIH).
Test [2] relates to iPSC-derived cardiomyocytes. Description: Spontaneous beating rate of cardiomyocytes. The protocol: The BJRiPS cell line was used to generate preliminary data. BJRiPS cells were differentiated into cardiomyocytes according to previously published protocols (6). After the onset of beating (around day 10), cardiomyocytes were treated with vehicle (DMSO) or different concentrations of rapamycin, Torin1, or Torin2 for different time periods. Beating rate was counted manually. Some cells were harvested after 5-7 days of treatment for flow cytometry analysis. Other cells were harvested after 7 days of treatment for qPCR.

Test [3] concerns TNNT2+ iPSC-derived cardiomyocytes. As to the kind of experiment: Cell cycle analysis by flow cytometry (Hoechst 33342 / pyronin Y) of TNNT2+ cardiomyocytes. The protocol: To prepare for differentiation, iPSCs were plated at a density between 20,000 to 80,000 cells (depending on the cell line) per well of a 12-well plate at four days prior to onset of differentiation. Cells were differentiated according to the protocol previously described by Lian et al. with some modifications (FIG. 1A) (1). Basal media was changed from StemFlex to RPMI/B27 on day 0 of differentiation. The GSK3 inhibitor, CHIR99021 (6 μM), was added for 48 hours from day 0 to day 2 of differentiation when cells were approximately 70-80% confluent. The Wnt antagonist IWP4 (5 μM) was added from days 2 to 4 of differentiation. Insulin (10 μg/ml) was added to the media starting on day 7 of differentiation, and media was changed every 2-3 days. In general, higher purity (TNNT2+) cardiomyocytes were observed when beating initiated prior to day 10 of differentiation, therefore only batches with onset of beating between days 7-10 of differentiation were included in this study. Beating cardiomyocytes were treated with Torin1 (200 nM, unless otherwise noted) or vehicle (0.02% dimethylsulfoxide (DMSO)) beginning at ˜2 days after onset of beating for 7 days (media changed with fresh Torin1 or DMSO every 2-3 days), unless otherwise noted. After Torin1 treatment, media was switched back to RPMI/B27/insulin and maintained with media change every 2-3 days until endpoint assay. In a few assays, fatty acids were added in the form of chemically defined lipids (Gibco) diluted 1:1000 simultaneous with Torin1 treatment. In some other assays, fetal bovine serum (10% FBS) was added to cells after completion of Torin treatment for 2-4 days.
Cells were dissociated and 5×10^5 to 1×10^6 cells were used per condition. For cell cycle analysis, 5×10^5 cells per condition were fixed in 70% cold ethanol for at least 2 hours to overnight at −20 degrees C. Cells were stained first with AlexaFluor 647-TNNT2 in Permeabilization Buffer (Thermo) then with Hoechst 33342 (2 μg/ml) and pyronin Y (4 μg/ml) for 20 minutes to distinguish between cells in G0, G1, and S-G2-M phases. For other stains, cells were fixed in eBioscience Intracellular Fixation buffer for 30 minutes followed washing twice in eBioscience Permeabilization Buffer and stained with the appropriate primary antibody (Table 2) in eBioscience FACS Staining buffer for 30-60 minutes. If a secondary antibody was used, cells were incubated with the appropriate secondary antibody (Table 2) for 30-60 minutes. The geometric mean fluorescence intensity (MFI) was quantified for TNNT2 and Kir2.1 antibodies. Data were acquired via a BD LSRII instrument and analyzed using FlowJo software.
A general note: A flow cytometer gives signals particle by particle.

Test [4] deals with iPSC-derived cardiomyocytes. Description: Imaging quantification of proliferating cardiomyocytes (Ki67, phospho-histone H3). The settings on record: versus control, non-dissociated cells, FIG. 8. The source says: Cardiomyocytes were differentiated in 12 well plates then fixed and stained in the original plates to minimize potential for selection of cells that survive dissociation. Cells were stained with Ki67/TNNT2/DAPI or phospho-H3/TNNT2/DAPI as described in Immunostaining methods. Images were acquired with a fluorescent microscope. Monolayer regions containing TNNT2+ cells were randomly selected from 5 fields of view in the plate with a 10× objective. The particle analysis feature of ImageJ was used to quantify the number of cells per field of view that were positive for DAPI, Ki67, or pH3. To control for variability across samples, a signal threshold of <500 was set DAPI and pH3 (488 nm) channels and a signal threshold of <600 was set for Ki67 ([…]). Particle sizes between 10-1000 pixels^2 were included in the analysis. The percentage of Ki67+ cells or pH3+ cells out of the total number of cells marked by DAPI and TNNT2 was quantified. A chi-squared test was used to evaluate for statistical significance.

Test [5] relates to GCaMP-derived cardiomyocytes. Description: Cardiomyocyte purity (% TNNT2+) in 3D suspension culture. The settings on record: Torin1 24 hours from day 9, assay day 10; ~70% TNNT2+ with the protocol. How it is done:
Cardiomyocyte differentiation of iPSCs in suspension culture. The suspension differentiation protocol outlined by Kempf et al (79) will be used with some modifications. 30 ml and 125 ml disposable spinner flasks are set on a spinner plate capable of rotation speeds between 40-70 rpm placed in a 37° C., 5% CO2 incubator. Cells are seeded at 750,000 cells/ml and allowed to grow for 4 days in maintenance media until spheroids are approximately 300 μm in diameter, then differentiation is initiated with 7.5 μM CHIR99021. On day 2 of differentiation, CHIR is removed from the media and the Wnt pathway inhibitor IWP4 (5 μM) is added to the media, on day 4 of differentiation, IWP4 is removed from the media, and from day 7 onward, insulin is included in the media. […] Differentiation conditions will be optimized with all five cell lines (BJRiPS-A, DiPS 1016 SevA, GCaMP, Gibco, UCSD142i-86-1). Cardiomyocyte purity will be quantified with flow cytometry detecting TNNT2+ cells.
An example of a differentiation protocol for generating cardiomyocytes from iPSCs in suspension culture is detailed as follows. 30 ml and 125 ml disposable spinner flasks were used and were set on a spinner plate capable of rotation speeds between 40-70 rpm, where the spinner plate is placed in a 37° C., 5% CO2 incubator. […] Cardiomyocyte purity will be quantified with flow cytometry detecting TNNT2+ cells.

For the compound `CCC(=O)N1CCN(c2ccc(-n3c(=O)ccc4cnc5ccc(-c6cnc7ccccc7c6)cc5c43)cc2C(F)(F)F)CC1` [Torin1], the “phosphorylation of AMP kinase (AMPK)” value in test [1] (Torin1 200 nM, 0-48 h, BJRiPS-CMs, FIG. 17B) is “increased phosphorylation of AMP kinase (AMPK)”. In addition, in test [1] (Torin1 200 nM, single treatment, 0-48 h, BJRiPS-CMs), the “phosphorylation of S6K and Akt” value is “acutely decreased phosphorylation of both S6K and Akt”. In addition, the “phosphorylation of ribosomal protein S6” value in test [1] (Torin1 10, 50, 200 nM at days 25-29 after lactate enrichment, FIG. 28) is on record as “decreased phosphorylation of S6”. Moreover, the “spontaneous rate of contraction” value in test [2] (Example 1, FIG. 4C) is “decrease”. For the same compound, the “beating rate of cardiomyocytes” value in test [2] (Torin1 10, 50, 200 nM, Torin2 200 nM, from day 11 for 4-5 days, FIG. 29) was “decreased the beating rate”. Also, the “beating rates at 1 week” value in test [2] (dose-dependent, BJRiPS-CMs, FIG. 29) is given as “significantly decreased beating rates”. In test [3] (10% FBS 48 hours starting two days after completion of Torin1, FIG. 1I), the “percentage of Torin1-treated cells in G0 after 10% FBS” value is given as “significant decrease”. The “quiescent (G0) cells” value in test [3] (Torin1 200 nM 1 week, vehicle control 24%, FIG. 1G) amounted to 48%. The same compound returned a G1 cells in test [3] (Torin1 200 nM 1 week, vehicle control 47%, FIG. 1G) of 27%. Also, the “percentage of quiescent (G0) TNNT2+ cardiomyocytes versus control” value in test [3] (nutlin-3a 10 μM 24 hours, Torin1 200 nM 7 days, or both, BJRiPS-CMs, FIG. 6B) is on record as “increased the percentage of quiescent (G0) TNNT2+ cardiomyocytes”. Moreover, in test [3] (nutlin-3a 10 μM 24 hours, Torin1 200 nM 7 days, or both, FIG. 6B), the “percentage of TNNT2+ cardiomyocytes in G1 phase versus control” value was “decreased the percentage of TNNT2+ cardiomyocytes in G1 phase”. Also, in test [4], the “percentage of Ki67+ cardiomyocytes” value is on record as “significantly decreased” and the “percentage of pH3+ cardiomyocytes” value is “did not change”. For the same compound, the “% TNNT2+ cardiomyocyte purity in 3D suspension culture” value in test [5] is listed as “trend toward higher purity; also recorded: trend toward higher % TNNT2+ cells”.
